Assay results taken from patent publication US8759099B2, “Pancreatic islet separation method, and protective solution for protecting pancreatic islet tissue” (Otsuka Pharmaceutical Factory, Inc., priority 2010, dated 2014).

Test system: mouse islets
Experiment: LDH leakage cytotoxicity of mouse islets cultured in the presence of neutrophil elastase
Type: cell-based
Settings: FIG. 3
Protocol: The concentration of the neutrophil elastase inhibitor used in the isolation method of the present invention was examined as follows using the extracellular leakage of LDH (lactate dehydrogenase) (indicator for cytotoxicity) as an indicator.
First, mouse islets were cultured in the presence of neutrophil elastase at a concentration of 0.31 to 10 μg/mL and the supernatant was collected after a lapse of a certain time. Subsequently, the remaining mouse islets were homogenized and the islet suspension was collected. LDH contained in the collected supernatant and the islet suspension was measured by using a LDH assay kit to measure absorbance at 562 nm. The optimal concentration of the neutrophil elastase inhibitor was examined by adding 2 to 200 μM of the neutrophil elastase inhibitor, sivelestat, in culturing mouse islets in the presence of various concentrations of neutrophil elastase, and similarly measuring the amount of LDH. The cytotoxicity was expressed as the percentage (%) of the amount of LDH contained in the supernatant in the sum of the amount of LDH contained in the supernatant and the amount of LDH contained in the islet suspension.

With `CC(C)(C)C(=O)Oc1ccc(S(=O)(=O)Nc2ccccc2C(=O)NCC(=O)O)cc1` [sivelestat] the “optimal concentration of the neutrophil elastase inhibitor” value (from suppression of LDH leakage among 2, 20, 200 μM) was 20 µM and the “damage of islet cells (cytotoxicity, LDH in supernatant as % of total LDH)” value (mouse islets with neutrophil elastase 0.31 to 10 μg/mL, 2, 20 or 200 μM sivelestat compared, result at 20 μM) was “most suppressed”.
